What is called EC50 is the concentration at which the effect is half-maximal. A word on the DC50: it is the midpoint of the concentration-degradation curve.

Here are results for three compounds from paper PMC10746543, “Design principles for cyclin K molecular glue degraders” (Nature Chemical Biology, 2023).

One assay concerns HEK293T cells. The experiment in a line: Drug sensitivity assay (CellTiter-Glo viability) with or without MLN4924 pretreatment. The class given is cell-based, human. Conditions: Supplementary Table 2; for EC50: Homo sapiens, HEK-293T, HEK293T viability, 72 h, compound alone, read-out: Cellular assays EC50; for Toxicity rescue: MLN4924-mediated cytotoxicity rescue, 10 µM used where n.d. In short, it runs like this:
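Cas9-expressing HEK293T cells receive either vehicle or 100 nM MLN4924, then compounds 2 h afterwards. After three days, luminescence-based viability is measured and calculated relative to DMSO.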

For a further assay, the target named is T1, CDK12–cyclin K and DDB1 (Homo sapiens, UniProt Q16531+Q9NYV4, K965R).
T1 construct: His6–CDK12 (a.a. 713–1,052); full-length or beta-propeller B domain deletion (ΔBPB: a.a. 396–705 deleted) constructs of His6–DDB1ΔBPB, StrepII–Avi–DDB1, or His6–Spy–DDB1; made in house; host or cells: Trichoplusia ni High Five insect cells (baculovirus)
T1 sequence (Q9NYV4 713-1052 K965R): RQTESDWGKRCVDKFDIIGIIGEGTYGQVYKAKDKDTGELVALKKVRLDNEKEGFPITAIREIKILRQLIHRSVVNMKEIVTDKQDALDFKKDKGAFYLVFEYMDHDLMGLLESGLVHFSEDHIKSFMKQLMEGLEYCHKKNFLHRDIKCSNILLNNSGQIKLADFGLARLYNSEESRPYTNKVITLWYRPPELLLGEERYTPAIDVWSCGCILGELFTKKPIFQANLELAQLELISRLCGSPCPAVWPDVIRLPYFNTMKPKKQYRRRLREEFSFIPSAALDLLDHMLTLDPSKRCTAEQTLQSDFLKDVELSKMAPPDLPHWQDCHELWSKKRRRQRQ
T1 sequence (O75909 1-267 partner): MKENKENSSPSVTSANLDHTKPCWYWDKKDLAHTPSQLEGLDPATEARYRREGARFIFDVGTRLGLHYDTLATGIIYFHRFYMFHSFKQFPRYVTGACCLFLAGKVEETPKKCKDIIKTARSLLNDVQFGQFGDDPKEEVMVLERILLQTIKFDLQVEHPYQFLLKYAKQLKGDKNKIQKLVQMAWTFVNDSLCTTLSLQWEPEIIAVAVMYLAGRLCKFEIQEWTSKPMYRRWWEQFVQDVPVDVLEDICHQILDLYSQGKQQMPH
T1 sequence (Q16531 whole entry): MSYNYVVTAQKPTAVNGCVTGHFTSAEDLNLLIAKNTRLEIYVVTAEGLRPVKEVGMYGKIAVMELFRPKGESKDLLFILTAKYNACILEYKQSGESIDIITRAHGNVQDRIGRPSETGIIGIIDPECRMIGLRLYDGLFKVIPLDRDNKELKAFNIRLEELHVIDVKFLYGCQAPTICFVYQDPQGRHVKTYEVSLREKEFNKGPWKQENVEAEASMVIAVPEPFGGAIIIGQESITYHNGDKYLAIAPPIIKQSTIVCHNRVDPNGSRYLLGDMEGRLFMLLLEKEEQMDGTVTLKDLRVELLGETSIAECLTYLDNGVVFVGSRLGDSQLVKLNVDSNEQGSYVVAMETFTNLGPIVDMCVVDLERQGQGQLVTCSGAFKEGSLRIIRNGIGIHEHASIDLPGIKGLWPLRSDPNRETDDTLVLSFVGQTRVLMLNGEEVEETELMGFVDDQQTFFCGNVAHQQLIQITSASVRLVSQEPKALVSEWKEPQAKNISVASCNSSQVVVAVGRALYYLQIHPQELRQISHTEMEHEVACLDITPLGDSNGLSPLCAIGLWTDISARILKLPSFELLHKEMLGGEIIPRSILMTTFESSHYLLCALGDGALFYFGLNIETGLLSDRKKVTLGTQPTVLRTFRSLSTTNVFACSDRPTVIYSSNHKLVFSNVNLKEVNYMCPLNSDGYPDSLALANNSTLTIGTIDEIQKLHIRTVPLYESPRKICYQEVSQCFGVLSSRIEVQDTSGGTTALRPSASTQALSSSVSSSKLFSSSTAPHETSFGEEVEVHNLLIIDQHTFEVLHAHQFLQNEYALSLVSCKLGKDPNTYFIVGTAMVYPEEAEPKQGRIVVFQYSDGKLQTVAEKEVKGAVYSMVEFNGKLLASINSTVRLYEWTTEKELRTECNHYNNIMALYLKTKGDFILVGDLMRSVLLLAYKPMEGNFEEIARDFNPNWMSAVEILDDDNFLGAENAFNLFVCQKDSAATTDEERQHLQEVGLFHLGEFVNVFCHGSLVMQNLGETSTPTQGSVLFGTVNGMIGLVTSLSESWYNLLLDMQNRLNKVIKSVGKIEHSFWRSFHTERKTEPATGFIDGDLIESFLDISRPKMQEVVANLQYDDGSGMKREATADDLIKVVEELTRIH
The experiment in a line: TR-FRET ternary complex formation assay (compound titration). It is filed as binding. The conditions noted are these: for TR-FRET signal at compound concentration: replicate titrations. In short, it runs like this:
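A time delay of 70 μs preceded acquisition, limiting background fluorescence; the ratio of emission at 520 versus 490 nm gave the TR-FRET value.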
For orientation: In TR-FRET formats the signal depends on donor and acceptor labels being close together.

The test system of assay [1] is cyclin K–eGFP degradation reporter. The experiment in a line: Cyclin K reporter stability analysis (dual-color cyclin K–eGFP reporter). It is filed as cell-based, human. The conditions noted are these: Supplementary Table 2; HEK293T cycK-eGFP reporter, 5 h; read-out: Cellular assays DC50. In short, it runs like this:
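First, reporter-bearing HEK293T–Cas9 cells are plated at 1 × 10^6 ml^−1. Next, drug or vehicle is added for 5 h. Finally, geometric-mean eGFP and mCherry signals of round, mCherry-positive cells are measured cytometrically, and their ratio is referenced to the DMSO average.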

Where [2] appears, read: Supplementary Table 2, read-out: TR-FRET EC50 TR-FRET.
Where [3] appears, read: compound concentration 0.468 nM.
[4] abbreviates: compound concentration 7.92001 nM.
The mark [5] stands for this setting: compound concentration 15.84 nM.
The mark [6] stands for this setting: compound concentration 30.96 nM.
Setting [7] is: compound concentration 62.6401 nM.
The mark [8] stands for this setting: compound concentration 125.28 nM.
Setting [9] is: compound concentration 244.8 nM.
[10] abbreviates: compound concentration 993.601 nM.
The mark [11] stands for this setting: compound concentration 2001.6 nM.
The mark [12] stands for this setting: in vitro complex formation, 50 nM CDK12–cyclin K, 100 nM DDB1, text and figures, read-out: TR-FRET EC50.
Setting [13] is: compound concentration 79.2001 nM.
[14] abbreviates: compound concentration 158.4 nM.
The mark [15] stands for this setting: compound concentration 309.6 nM.
The mark [16] stands for this setting: compound concentration 626.401 nM.
The mark [17] stands for this setting: compound concentration 1252.8 nM.
[18] abbreviates: compound concentration 9936.01 nM.
Where [19] appears, read: compound concentration 20016 nM.

Where “and” joins values, the source holds several entries; their conditions need not be identical. Identical values can stand only once. Like-named read-outs stand apart in the source and are kept apart here.

Turning to `CC[C@H](CO)Nc1nc(NCCCc2ccccc2)c2ncn(C(C)C)c2n1` [DS11], the EC50 was more than 10000 nM in the assay on HEK293T cells; 56.8 nM at CDK12–cyclin K and DDB1 (setting [2]); 57 ± 3 nM at CDK12–cyclin K and DDB1 (setting [12]); 56.8 nM at CDK12–cyclin K and DDB1 (sheet MOESM7, read-out: log TR-FRET EC50 (converted)). Besides, in the assay with HEK293T cells, the Toxicity rescue is 0%. Further, the TR-FRET signal at CDK12–cyclin K and DDB1 (setting [3]) was 0.241 and 0.2489; at CDK12–cyclin K and DDB1 (compound concentration 2.16 nM), 0.2983 and 0.2991; at CDK12–cyclin K and DDB1 (compound concentration 3.6 nM), 0.374 and 0.3698; on CDK12–cyclin K and DDB1 (setting [4]), 0.5495 and 0.5492; at CDK12–cyclin K and DDB1 (setting [5]), 0.8302 and 0.8222; at CDK12–cyclin K and DDB1 (setting [6]), 1.2679 and 1.278. The TR-FRET signal on CDK12–cyclin K and DDB1 (setting [7]) was 1.798 and 1.8918; on CDK12–cyclin K and DDB1 (setting [8]) it was 2.382 and 2.496; on CDK12–cyclin K and DDB1 (setting [9]), 2.742 and 2.9079; on CDK12–cyclin K and DDB1 (setting [10]), 3.1224 and 3.3313; on CDK12–cyclin K and DDB1 (setting [11]), 3.176 and 3.283. In addition, the “TR-FRET signal, individual replicate” value was 0.241 and 0.2489 on CDK12–cyclin K and DDB1 (setting [3]); 0.2983 and 0.2991 at CDK12–cyclin K and DDB1 (compound concentration 2.16 nM); 0.374 and 0.3698 at CDK12–cyclin K and DDB1 (compound concentration 3.6 nM); 0.5495 and 0.5492 on CDK12–cyclin K and DDB1 (setting [4]); 0.8302 and 0.8222 at CDK12–cyclin K and DDB1 (setting [5]); 1.2679 and 1.278 at CDK12–cyclin K and DDB1 (setting [6]). The “TR-FRET signal, individual replicate” value at CDK12–cyclin K and DDB1 (setting [7]) is 1.798 and 1.8918; at CDK12–cyclin K and DDB1 (setting [8]), 2.382 and 2.496; on CDK12–cyclin K and DDB1 (setting [9]), 2.742 and 2.9079; at CDK12–cyclin K and DDB1 (setting [10]) it was 3.1224 and 3.3313; at CDK12–cyclin K and DDB1 (setting [11]) it was 3.176 and 3.283. The “TR-FRET signal at compound concentration” value on CDK12–cyclin K and DDB1 (setting [3]) is 0.241 and 0.2489; on CDK12–cyclin K and DDB1 (compound concentration 2.16 nM) it was 0.2983 and 0.2991; on CDK12–cyclin K and DDB1 (compound concentration 3.6 nM), 0.374 and 0.3698; at CDK12–cyclin K and DDB1 (setting [4]), 0.5495 and 0.5492; on CDK12–cyclin K and DDB1 (setting [5]) it was 0.8302 and 0.8222; at CDK12–cyclin K and DDB1 (setting [6]), 1.2679 and 1.278. Also, the “TR-FRET signal at compound concentration” value at CDK12–cyclin K and DDB1 (setting [7]) is 1.798 and 1.8918; at CDK12–cyclin K and DDB1 (setting [8]), 2.382 and 2.496; at CDK12–cyclin K and DDB1 (setting [9]) it was 2.742 and 2.9079; at CDK12–cyclin K and DDB1 (setting [10]) it was 3.1224 and 3.3313; on CDK12–cyclin K and DDB1 (setting [11]), 3.176 and 3.283. Also, in assay [1], the DC50 was more than 10000 nM.
With `CC[C@H](CO)Nc1nc(NCC2CCCCC2)c2ncn(C(C)C)c2n1` [DS12], the 50% effective concentration (EC50) in the assay with HEK293T cells is more than 10000 nM; at CDK12–cyclin K and DDB1 (setting [2]) it was 774 nM. The Toxicity rescue in the assay on HEK293T cells worked out at 0%. The “TR-FRET signal, individual replicate” value on CDK12–cyclin K and DDB1 (compound concentration 4.68 nM) is 0.1383 and 0.1554; on CDK12–cyclin K and DDB1 (compound concentration 21.6 nM), 0.1534 and 0.1726; at CDK12–cyclin K and DDB1 (compound concentration 36 nM) it was 0.171 and 0.1959; at CDK12–cyclin K and DDB1 (setting [13]), 0.2152 and 0.2381; at CDK12–cyclin K and DDB1 (setting [14]) it was 0.2801 and 0.3063; on CDK12–cyclin K and DDB1 (setting [15]), 0.3618 and 0.4127. Moreover, the “TR-FRET signal, individual replicate” value was 0.3596 and 0.5492 at CDK12–cyclin K and DDB1 (setting [16]); 0.6021 and 0.6861 at CDK12–cyclin K and DDB1 (setting [17]); 0.7207 and 0.8094 on CDK12–cyclin K and DDB1 (compound concentration 2448 nM); 0.7638 and 0.9453 on CDK12–cyclin K and DDB1 (setting [18]); 0.8451 and 0.9714 on CDK12–cyclin K and DDB1 (setting [19]). For the same compound, in assay [1], the DC50 was more than 10000 nM.
For `CCOCCOCCNc1nc(N[C@H](CC)CO)nc2c1ncn2C(C)C` [DS13], the EC50 was more than 10000 nM with HEK293T cells; 3230 ± 959 nM at CDK12–cyclin K and DDB1 (setting [12]). Further, the Toxicity rescue in the assay with HEK293T cells was determined as 0%. The TR-FRET signal on CDK12–cyclin K and DDB1 (compound concentration 4.68 nM) was 0.1269 and 0.1552; on CDK12–cyclin K and DDB1 (compound concentration 21.6 nM), 0.1368 and 0.156; on CDK12–cyclin K and DDB1 (compound concentration 36 nM) it was 0.1404 and 0.1564; on CDK12–cyclin K and DDB1 (setting [13]), 0.1332 and 0.164; on CDK12–cyclin K and DDB1 (setting [14]), 0.1494 and 0.1683; on CDK12–cyclin K and DDB1 (setting [15]), 0.1517 and 0.1802. For the same compound, the TR-FRET signal on CDK12–cyclin K and DDB1 (setting [16]) was 0.1772 and 0.1976; on CDK12–cyclin K and DDB1 (setting [17]) it was 0.2017 and 0.2255; at CDK12–cyclin K and DDB1 (compound concentration 2448 nM), 0.2403 and 0.2789; at CDK12–cyclin K and DDB1 (setting [18]) it was 0.333 and 0.3875; on CDK12–cyclin K and DDB1 (setting [19]), 0.3528 and 0.412. Further, the DC50 in assay [1] is more than 10000 nM.
